This passage reports T/C results from PubChem BioAssay AID330 (DTP/NCI, 2004).

“And” between values parts separate entries of the source, which are not always exact repeats. Equal values may be shown once. Toxic doses and inconclusive results are not listed.

For this experiment, the system named is P388 leukemia ip, CD2F1 mice, survival T/C. Briefly: NCI In Vivo Anticancer Drug Screen. Data for tumor model P388 Leukemia (intraperitoneal) in CD2F1 (CDF1) mice. Particulars: endpoint: median survival time, higher = longer survival. The essentials:
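Mice carrying the transplanted tumor received test compound or vehicle. Survival was recorded in each group, and the value is the treated-group measurement divided by that of the vehicle-treated control group.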

Where [1] appears, read: dose: 25.0 mg/kg/injection, schedule: Q01DX009 (ip), vehicle: saline with Tween-80.
[2] abbreviates: dose: 50.0 mg/kg/injection, schedule: Q04DX003 (ip), vehicle: saline with Tween-80.
[3] abbreviates: dose: 100.0 mg/kg/injection, schedule: Q04DX003 (ip), vehicle: saline with Tween-80.
[4] abbreviates: dose: 200.0 mg/kg/injection, schedule: Q04DX003 (ip), vehicle: saline with Tween-80.
Where [5] appears, read: dose: 400.0 mg/kg/injection, schedule: Q04DX003 (ip), vehicle: saline with Tween-80.
Setting [6] is: dose: 50.0 mg/kg/injection, schedule: Q01DX009 (ip), vehicle: saline with Tween-80.

With `C1CC[N-]CC1.C1CC[N-]CC1.C1CC[N-]CC1.[Cl][Rh]([Cl])[Cl]`, the T/C by setting is: (dose: 1.0 mg/kg/injection, schedule: Q03HX024 (ip), vehicle: saline) 100 % of control and 96 % of control; (dose: 2.0 mg/kg/injection, schedule: Q03HX016 (ip), vehicle: saline) 97 % of control; (dose: 2.0 mg/kg/injection, schedule: Q03HX024 (ip), vehicle: saline) 96 % of control and 98 % of control; (dose: 4.0 mg/kg/injection, schedule: Q01DX009 (ip), vehicle: saline) 98 % of control; (dose: 4.0 mg/kg/injection, schedule: Q03HX016 (ip), vehicle: saline) 96 % of control; (dose: 4.0 mg/kg/injection, schedule: Q03HX024 (ip), vehicle: saline) 96 % of control. The T/C reads like this: (dose: 8.0 mg/kg/injection, schedule: Q03HX016 (ip), vehicle: saline) 110 % of control and 96 % of control; (dose: 8.0 mg/kg/injection, schedule: Q03HX024 (ip), vehicle: saline) 97 % of control; (dose: 8.0 mg/kg/injection, schedule: Q04DX003 (ip), vehicle: saline) 100 % of control; (dose: 16.0 mg/kg/injection, schedule: Q01DX001 (ip), vehicle: saline) 110 % of control; (dose: 16.0 mg/kg/injection, schedule: Q03HX008 (ip), vehicle: saline) 119 % of control; (dose: 16.0 mg/kg/injection, schedule: Q03HX024 (ip), vehicle: saline) 97 % of control. The T/C by setting is: under setting [1], 154 % of control; (dose: 32.0 mg/kg/injection, schedule: Q01DX009 (ip), vehicle: saline) 118 % of control; (dose: 32.0 mg/kg/injection, schedule: Q03HX008 (ip), vehicle: saline) 110 % of control; (dose: 32.0 mg/kg/injection, schedule: Q03HX016 (ip), vehicle: saline) 96 % of control; (dose: 32.0 mg/kg/injection, schedule: Q03HX024 (ip), vehicle: saline) 96 % of control and 97 % of control; (dose: 64.0 mg/kg/injection, schedule: Q01DX001 (ip), vehicle: saline) 110 % of control. Further, the T/C is, setting by setting: (dose: 64.0 mg/kg/injection, schedule: Q01DX009 (ip), vehicle: saline) 118 % of control; (dose: 64.0 mg/kg/injection, schedule: Q08DX002 (ip), vehicle: saline) 110 % of control.
With `CC1CCC(NC(=O)N(CCCl)N=O)CC1` (centres undefined), the T/C was 112 % of control (dose: 1.0 mg/kg/injection, schedule: Q01DX009 (ip), vehicle: saline sonified); 122 % of control (dose: 2.0 mg/kg/injection, schedule: Q01DX009 (ip), vehicle: saline with Tween-80); 163 % of control (dose: 3.0 mg/kg/injection, schedule: Q04DX003 (ip), vehicle: other); 163 % of control (dose: 3.75 mg/kg/injection, schedule: Q04DX003 (ip), vehicle: other); 166 % of control (dose: 4.0 mg/kg/injection, schedule: Q01DX009 (ip), vehicle: saline sonified); 154 % of control (dose: 4.0 mg/kg/injection, schedule: Q01DX009 (ip), vehicle: saline with Tween-80). Besides, the T/C (dose: 5.0 mg/kg/injection, schedule: Q04DX003 (ip), vehicle: other) was 238 % of control; the T/C (dose: 6.0 mg/kg/injection, schedule: Q04DX003 (ip), vehicle: other) was 247 % of control; the T/C (dose: 7.5 mg/kg/injection, schedule: Q04DX003 (ip), vehicle: other) is 225 % of control; the T/C (dose: 8.0 mg/kg/injection, schedule: Q01DX009 (ip), vehicle: saline sonified) is 100 % of control; the T/C (dose: 8.0 mg/kg/injection, schedule: Q01DX009 (ip), vehicle: saline with Tween-80) is 190 % of control; the T/C (dose: 10.0 mg/kg/injection, schedule: Q04DX003 (ip), vehicle: other) is 160 % of control. Besides, the T/C is 108 % of control and 120 % of control (dose: 10.0 mg/kg/injection, schedule: Q04DX003 (ip), vehicle: saline with Tween-80); 238 % of control (dose: 12.0 mg/kg/injection, schedule: Q04DX003 (ip), vehicle: other); 441 % of control (dose: 15.0 mg/kg/injection, schedule: Q04DX003 (ip), vehicle: other); 218 % of control (dose: 15.0 mg/kg/injection, schedule: Q04DX003 (ip), vehicle: saline with Tween-80); 109 % of control (dose: 16.0 mg/kg/injection, schedule: Q01DX009 (ip), vehicle: saline with Tween-80); 231 % of control (dose: 20.0 mg/kg/injection, schedule: Q04DX003 (ip), vehicle: other). Moreover, the T/C by setting is: (dose: 20.0 mg/kg/injection, schedule: Q04DX003 (ip), vehicle: saline with Tween-80) 227 % of control and 250 % of control; (dose: 24.0 mg/kg/injection, schedule: Q04DX003 (ip), vehicle: other) 110 % of control; (dose: 30.0 mg/kg/injection, schedule: Q04DX003 (ip), vehicle: other) 156 % of control.
Turning to `COc1cc(C(C)=O)cc([N+](=O)[O-])c1O`, the T/C under setting [2] was 100 % of control, the T/C under setting [3] is 100 % of control and the T/C under setting [4] is 100 % of control.
Turning to `Clc1ncnc2c1ncn2C1CCCCO1` (centres undefined), the T/C reads like this: under setting [2], 104 % of control; (dose: 100.0 mg/kg/injection, schedule: Q01DX009 (ip), vehicle: other) 95 % of control; under setting [3], 100 % of control; (dose: 200.0 mg/kg/injection, schedule: Q01DX009 (ip), vehicle: other) 95 % of control; under setting [4], 100 % of control; under setting [5], 100 % of control.
As for `CCOP(=O)(O)OCC.CCOP(=O)(O)OCC.[O]=[V]`, the T/C is 100 % of control (dose: 100.0 mg/kg/injection, schedule: Q01DX001 (ip), vehicle: Klucel (hydroxypropylcellulose) (HPC)) and 100 % of control (dose: 200.0 mg/kg/injection, schedule: Q01DX001 (ip), vehicle: Klucel (hydroxypropylcellulose) (HPC)).
Take `CC1/C(=N/O)C(=O)c2ccccc21` (centres undefined): the T/C reads like this: (dose: 12.5 mg/kg/injection, schedule: Q01DX009 (ip), vehicle: saline with Tween-80) 100 % of control; under setting [1], 95 % of control; under setting [6], 100 % of control.
Regarding `NNC(=O)CNC(=O)Nc1n[nH]c(=S)s1`, the T/C runs as follows: under setting [6], 101 % of control; (dose: 100.0 mg/kg/injection, schedule: Q01DX009 (ip), vehicle: saline with Tween-80) 95 % of control.
As to `CCOC(=O)Oc1ccc(CC([NH-])C(=O)O)cc1.CCOC(=O)Oc1ccc(CC([NH-])C(=O)O)cc1.[Cu+2]` (centres undefined), the T/C by setting is: (dose: 6.25 mg/kg/injection, schedule: Q01DX009 (ip), vehicle: saline) 100 % of control; (dose: 12.5 mg/kg/injection, schedule: Q01DX009 (ip), vehicle: saline) 100 % of control; (dose: 25.0 mg/kg/injection, schedule: Q01DX009 (ip), vehicle: saline) 100 % of control.
Take `COc1ccc(C2OC(N)=C(O)C2=O)cc1OC` (centres undefined): the T/C (dose: 60.0 mg/kg/injection, schedule: Q01DX005 (ip), vehicle: Klucel (hydroxypropylcellulose) (HPC)) is 100 % of control; the T/C (dose: 120.0 mg/kg/injection, schedule: Q01DX005 (ip), vehicle: Klucel (hydroxypropylcellulose) (HPC)) was 91 % of control; the T/C (dose: 240.0 mg/kg/injection, schedule: Q01DX005 (ip), vehicle: Klucel (hydroxypropylcellulose) (HPC)) is 95 % of control.
Consider `ClC1(c2ccccc2)c2ccc(Br)cc2-c2cc(Br)ccc21`, for which the T/C by setting is: (dose: 65.0 mg/kg/injection, schedule: Q01DX009 (ip), vehicle: Klucel (hydroxypropylcellulose) (HPC)) 109 % of control; under setting [3], 118 % of control; (dose: 200.0 mg/kg/injection, schedule: Q01DX009 (ip), vehicle: saline with Tween-80) 109 % of control; under setting [4], 122 % of control; (dose: 400.0 mg/kg/injection, schedule: Q01DX009 (ip), vehicle: saline with Tween-80) 113 % of control; under setting [5], 118 % of control.
